{"source": "patent US20160038482A1", "about": "(CHANRX CORPORATION, priority 2013, published 2016)", "key": {"[1]": {"assay": "Example 1: plasma concentrations of vanoxerine and metabolites after a 300 mg dose", "assay_type": "in vivo, human", "details": "low concentration group, any time point", "method": "Each patient gave samples before administration of their dose, and then again at nine further time points, 30 minutes after administration, 1, 2, 3, 4, 6, 8, 12, and 24 hours post administration."}, "[2]": {"assay": "pharmacokinetic parameters from tests in dogs", "assay_type": "in vivo", "details": "dog, plasma", "source_text": "Vanoxerine is primarily eliminated from the body in urine, bile, and feces. Indeed, a substantial amount of the drug is expelled, unabsorbed into the feces. […] However, the long half-life of the drug may actually be utilized to minimize the continuous or regular dosing of the drug."}, "[3]": {"tested_on": "cardiac arrhythmia", "assay_type": "in vivo, human", "details": "second patient, supraventricular tachycardia, 2 x 200 mg, after first dose"}, "[4]": {"assay": "Example 3: daily doses for 11 consecutive days, PK and hemodynamics", "assay_type": "in vivo, human", "details": "for half-life / Cmax: human, plasma, 11 days; for half-life: read-out: PK Data (Mean +/− SD) T1/2 (converted); for Cmax: read-out: PK Data (Mean +/− SD) CMax"}, "[5]": {"assay": "Example 4: daily doses for 14 days in healthy patients", "assay_type": "in vivo, human", "method": "A standardized meal was served 15 minutes prior to each dosing."}, "[6]": {"assay": "Example 5: daily doses for 7 days", "assay_type": "in vivo, human"}, "[7]": {"tested_on": "recent onset symptomatic AF/AFL", "assay": "Example 6: conversion of recent onset AF/AFL, placebo-controlled double-blind", "assay_type": "in vivo, human", "details": "for Conversion of Atrial Flutter, Conversion, %: pure atrial flutter N=4, any time within 24 hours; for conversion: all doses", "method": "The vanoxerine or identical appearing placebo was randomly assigned and administered in a double-blinded fashion. Definition of “pure” atrial flutter: only Atrial Flutter (no AF) seen at -30, -15, and 0 time points. Conversion at any time within 24 hours."}, "[8]": {"assay": "Example 6: adverse events", "assay_type": "in vivo, human", "source_text": "The vanoxerine or identical appearing placebo was randomly assigned and administered in a double-blinded fashion."}, "[9]": {"assay": "multiple daily dosing: hemodynamic effects", "assay_type": "in vivo, human", "source_text": "However, control and prevention of events of cardiac arrhythmia are important to these patients to prevent future re-occurrences and the deleterious effects and morbidity."}, "[10]": {"details": "healthy subjects, cited from earlier work"}}, "note": "Where two headings read alike, the source gives them in different places.", "data": [{"smiles": "Fc1ccc(C(OCCN2CCN(CCCc3ccccc3)CC2)c2ccc(F)cc2)cc1", "note": "[Vanoxerine, 1-[2-[bis(4-fluorophenyl)methoxy]ethyl]-4-(3-phenylpropyl)piperazine]", "values": [{"measurement": "plasma levels (highest reached)", "setting": "[1]", "result": "~40", "unit": "ng/mL"}, {"measurement": "Tmax", "setting": "[2]; oral", "result": "~3", "unit": "h"}, {"measurement": "bioavailability", "setting": "[2]; oral, read-out: systemic bioavailability", "result": 23, "unit": "%"}, {"measurement": "half-life", "setting": "[2]; read-out: T1/2 (elimination from the plasma) (converted)", "result": 22, "unit": "h"}, {"measurement": "time of conversion to normal sinus rhythm", "setting": "[3]", "result": "about 6 hours"}, {"measurement": "plasma levels detectability", "setting": "[4]; 25 mg daily", "result": "not detectable after 8 hours"}, {"measurement": "plasma levels detectability", "setting": "[4]; 50, 75, and 100 mg daily", "result": "detectable at 24 hours"}, {"measurement": "time to steady state", "setting": "[4]; 50, 75, and 100 mg daily", "result": "≤ 8", "unit": "days"}, {"measurement": "heart rate and systolic blood pressure", "setting": "[4]; 75 and 100 mg daily doses", "result": "increased slightly in most subjects"}, {"measurement": "PK linearity", "setting": "[4]; across 50, 75 and 100 mg doses", "result": "linear and dose proportional"}, {"measurement": "half-life", "setting": "[4]; 50 mg daily", "result": 49.4, "unit": "h"}, {"measurement": "Cmax", "setting": "[4]; 75 mg daily", "result": 27.4, "unit": "ng/mL"}, {"measurement": "half-life", "setting": "[4]; 75 mg daily", "result": 52.5, "unit": "h"}, {"measurement": "Cmax", "setting": "[4]; 100 mg daily", "result": 40.2, "unit": "ng/mL"}, {"measurement": "half-life", "setting": "[4]; 100 mg daily", "result": 15.4, "unit": "h"}, {"measurement": "Cmax, ss, and AUC0-24ss inter-subject variability", "setting": "[4]; steady state", "result": "55-85%"}, {"measurement": "half-life of the drug", "setting": "[4]; when daily doses are given", "result": "increased half-life"}, {"measurement": "time to steady state serum levels", "setting": "[5]; 25, 75, and 125 mg daily for 14 days", "result": "9 to 11", "unit": "days"}, {"measurement": "adverse events", "setting": "[5]; 25, 75, and 125 mg daily for 14 days, healthy patients, after standardized meal", "result": "No significant adverse events"}, {"measurement": "steady state serum levels, dose proportionality", "setting": "[5]; higher doses compared with the lower doses", "result": "disproportionately and statistically greater levels at higher doses"}, {"measurement": "systolic blood pressure and heart rate", "setting": "[6]; 100 mg daily for 7 days", "result": "increases in systolic blood pressure and heart rate were seen"}, {"measurement": "systolic blood pressure and heart rate", "setting": "[6]; 150 mg daily for 7 days", "result": "increases in systolic blood pressure and in heart rate"}, {"measurement": "time to steady state levels", "setting": "[6]; 50, 100, and 150 mg daily, all patients", "result": "within one week"}, {"measurement": "Percent conversion", "setting": "[7]; 200 mg (22), 0-4 hr", "result": 18, "unit": "%"}, {"measurement": "Percent conversion", "setting": "[7]; 200 mg (22), 0-8 hr", "result": 45, "unit": "%"}, {"measurement": "Percent conversion", "setting": "[7]; 200 mg (22), 0-24 hr", "result": 59, "unit": "%"}, {"measurement": "improvement of conversion (percent increase in conversion over placebo)", "setting": "[7]; 200 mg, 0-4 hours", "result": 38, "unit": "%"}, {"measurement": "improvement of conversion (percent increase in conversion over placebo)", "setting": "[7]; 200 mg, 0-8 hours", "result": 96, "unit": "%"}, {"measurement": "improvement of conversion (percent increase in conversion over placebo)", "setting": "[7]; 200 mg, 0-24 hours", "result": 55, "unit": "%"}, {"measurement": "Conversion of Atrial Flutter, Conversion, %", "setting": "[7]; 200 mg", "result": 50, "unit": "%"}, {"measurement": "Percent conversion", "setting": "[7]; 300 mg (25), 0-4 hr", "result": 40, "unit": "%"}, {"measurement": "Percent conversion", "setting": "[7]; 300 mg (25), 0-8 hr", "result": 52, "unit": "%"}, {"measurement": "Percent conversion", "setting": "[7]; 300 mg (25), 0-24 hr", "result": 64, "unit": "%"}, {"measurement": "improvement of conversion (percent increase in conversion over placebo)", "setting": "[7]; 300 mg, 0-4 hours", "result": 207, "unit": "%"}, {"measurement": "improvement of conversion (percent increase in conversion over placebo)", "setting": "[7]; 300 mg, 0-8 hours", "result": 126, "unit": "%"}, {"measurement": "improvement of conversion (percent increase in conversion over placebo)", "setting": "[7]; 300 mg, 0-24 hours", "result": 68, "unit": "%"}, {"measurement": "Conversion of Atrial Flutter, Conversion, %", "setting": "[7]; 300 mg", "result": 75, "unit": "%"}, {"measurement": "Percent conversion", "setting": "[7]; 400 mg (25), 0-4 hr", "result": 52, "unit": "%"}, {"measurement": "Percent conversion", "setting": "[7]; 400 mg (25), 0-8 hr", "result": 76, "unit": "%"}, {"measurement": "Percent conversion", "setting": "[7]; 400 mg (25), 0-24 hr", "result": 84, "unit": "%"}, {"measurement": "improvement of conversion (percent increase in conversion over placebo)", "setting": "[7]; 400 mg, 0-4 hours", "result": 300, "unit": "%"}, {"measurement": "improvement of conversion (percent increase in conversion over placebo)", "setting": "[7]; 400 mg, 0-8 hours", "result": 230, "unit": "%"}, {"measurement": "improvement of conversion (percent increase in conversion over placebo)", "setting": "[7]; 400 mg, 0-24 hours", "result": 121, "unit": "%"}, {"measurement": "Conversion of Atrial Flutter, Conversion, %", "setting": "[7]; 400 mg", "result": 75, "unit": "%"}, {"measurement": "conversion", "setting": "[7]; at 12 hours", "result": "greater than 50%"}, {"measurement": "conversion", "setting": "[7]; at about 7 hours", "result": "greater than 40%"}, {"measurement": "conversion", "setting": "[7]; at about 16 hours", "result": "~60", "unit": "%"}, {"measurement": "conversion to sinus rhythm of recent onset symptomatic AF/AFL, dose dependence", "setting": "[7]; doses of 200, 300 and 400 mg", "result": "highly statistically significant dose dependent increase"}, {"measurement": "Adverse events: number of AEs reported", "setting": "[8]; 200 mg (22)", "result": 8, "unit": "AEs"}, {"measurement": "Adverse events: number of SAEs", "setting": "[8]; 200 mg (22)", "result": 1, "unit": "SAE"}, {"measurement": "Adverse events: subjects reporting, N (%)", "setting": "[8]; 200 mg (22)", "result": "4 (18%) subjects"}, {"measurement": "Adverse events: number of AEs reported", "setting": "[8]; 300 mg (25)", "result": 12, "unit": "AEs"}, {"measurement": "Adverse events: subjects reporting, N (%)", "setting": "[8]; 300 mg (25)", "result": "7 (28%) subjects"}, {"measurement": "Adverse events: number of AEs reported", "setting": "[8]; 400 mg (25)", "result": 23, "unit": "AEs"}, {"measurement": "Adverse events: number of SAEs", "setting": "[8]; 400 mg (25)", "result": 1, "unit": "SAE"}, {"measurement": "Adverse events: subjects reporting, N (%)", "setting": "[8]; 400 mg (25)", "result": "10 (40%) subjects"}, {"measurement": "1:1 AFL post dose", "setting": "[8]; 200, 300 and 400 mg", "result": "No 1:1 AFL seen post dose in any subject"}, {"measurement": "proarrhythmia", "setting": "[8]; 200, 300 and 400 mg", "result": "absence of proarrhythmia"}, {"measurement": "tolerability", "setting": "[8]; 200, 300 and 400 mg", "result": "well tolerated at all doses"}, {"measurement": "heart rate and systolic blood pressure", "setting": "[9]; daily use over 7, 10, and 14 days, 75, 100, 125, and 150 mg a day", "result": "increased heart rate and systolic blood pressure"}, {"measurement": "heart rate and systolic blood pressure", "setting": "[9]; multiple dosing, several subjects", "result": "dose-related increases in heart rate and systolic blood pressure"}, {"measurement": "side-effects", "setting": "[10]; daily repetitive dose of 50 mg", "result": "no side-effects should be expected"}, {"measurement": "side-effects", "setting": "[10]; higher doses", "result": "concentration difficulties, increase systolic blood pressure, asthenia, and a feeling of drug influence"}]}]}
